# Laboratory results from patent publication US6517856B1, “Insecticide resistance assay” (priority 1998, dated 2003).
# Key:
# [1] = Octanol-water partition coefficient (Kow); assay type: physicochemical; conditions: method of Leo et al. (1971), mean of 3 replicates
# tobacco budworm neonates = test: Larval feeding disruption assay for spinosad resistance; assay type: in vivo, Heliothis virescens; conditions: 1.6 μg active ingredient per ml diet, 24 h
# Experimental: The Bt feeding disruption assay described above was modified to monitor spinosad resistance in tobacco budworms. Trypan Blue (Direct Blue 14, Matheson Coleman and Bell, Norwood, Ohio) was blended into artificial diet (described above) at the rate of 20 mg of dye per 100 ml diet. This diet also was formulated with 1.6 μg of spinosad active ingredient per ml diet. The spinosad was added to the diet as part of a 44.2% aqueous formulation provided to us by Dr. Clyde Sorenson (NC State University, Raleigh, N.C.). […] The blue indicator diet with spinosad was dispensed at the rate of 100 μl per well into 8-well microtitre plate strips (Nalge Nunc Int., Napersville, Ill.). The wells were sealed with strip caps (Nunc). In order to reduce condensation within the wells, caps were punctured twice with a #3 insect pin.
# Hv Franklin (spinosad susceptible) and spinosad resistant (selected) neonates of the tobacco budworm were used in all assays and were added to the assay diet within 24 h of hatch. Hv Franklin has been previously shown to be representative of other field collected H. virescens strains in spinosad toxicity. Selection of our laboratory colony of tobacco budworms which were originally collected from various locations in North Carolina, with technical spinosad applied topically each generation, produced insects that were highly resistant to spinosad.
# Bioassays were conducted at 27±1° C. with a 14:10 L:D cycle, and the number of blue fecal pellets produced were counted after a 24 h exposure of the neonates to the diet. Results were taken from two replicates consisting of 24 insects per replicate.
# H. virescens = test: Effect of Trypan Blue in diet on rate of feces production, third instars; assay type: in vivo, Heliothis virescens; conditions: no Bt, confidence interval in brackets
# Experimental: The blue diet used in the feeding disruption bioassay is an agar based insect meal containing 20 mg of Trypan Blue (Direct Blue 14; Matheson Coleman & Bell, Norwood, Ohio) per 100 ml of standard artificial diet, and containing different concentrations of CryIAc (MVP, Mycogen). Larvae feeding on this colored diet produced blue feces which were easily distinguished by observation from feces derived from other food sources. Assays were conducted in 1-ounce clear plastic cups (Solo Cup Company, Urbana, Ill.; approximately […] in diameter and ¾ inches high) fitted with white cardboard tops, which are routinely used for insect rearing in the inventors' laboratories. The clear plastic allowed for the observation of blue feces without opening the container.
# The rate of feces production was examined for third instars of both the Wake (Bt susceptible) and YHD2 (Bt resistant) strains of H. virescens, to examine the effects of adding Trypan Blue to the standard artificial diet (the “Blue diet”). Wake budworms produced 30.6 ([…], 27.6-33.6) fecal pellets/hour/15 larvae on regular diet, and 25.5 (22.5-28.5) fecal pellets/hour/15 larvae on Trypan Blue diet. This difference, although small, was statistically significant as indicated by a significant diet×time interaction (F=6.05; df=1,24; P=0.0215) (PROC GLM procedure, SAS 1991). (Data not shown). […]
# [2] = Hv spinosad selected (resistant) neonates
molecule,measurement,setting,value
COC(=O)/C=C(\C)CC/C=C(\C)CC[C@H]1OC1(C)C [juvenile hormone III],Octanol-water coefficient (Kow),[1],165.33
spinosad,percentage producing 3-5 pellets,tobacco budworm neonates; [2],2.3%
same,percentage producing >2 fecal pellets,tobacco budworm neonates; [2],100%
same,percentage producing 0-2 fecal pellets,tobacco budworm neonates; susceptible Hv Franklin neonates,100%
CC(C)CCC[C@@H](C)[C@H]1CC[C@H]2[C@@H]3CC=C4C[C@@H](O)CC[C@]4(C)[C@H]3CC[C@]12C [cholesterol],Octanol-water coefficient (Kow),[1],0.46
Cc1cc(-c2ccc(/N=N/c3c(S(=O)(=O)O)cc4cc(S(=O)(=O)O)cc(N)c4c3O)c(C)c2)ccc1/N=N/c1c(S(=O)(=O)O)cc2cc(S(=O)(=O)O)cc(N)c2c1O [Trypan Blue],rate of fecal pellet production on Trypan Blue diet,H. virescens; Wake third instars,25.5 (22.5-28.5) fecal pellets/hour/15 larvae
same,rate of fecal pellet production on Trypan Blue diet,H. virescens; YHD2 third instars,34.9 (32.5-37.3) fecal pellets per hour per 15 larvae
